Results: PubChem BioAssay AID1963986 (Molecular Pharmacology Branch, DTP, NCI, 2024)
Several values for one entry are separate records, joined by “and”; a condition that tells them apart may be missing. Equal values may be shown once.

Tested on: 171881-019-R-J1-PDC tumor spheroid viability
Experiment: Anticancer human tumor 171881-019-R-J1-PDC patient-derived invasive breast carcinoma cell line growth inhibition [PI3K]
Conditions: spheroids with HUVEC and MSC; for viability, T/C: stronger effect = lower value
From the text: Combinatorial screen of targeted agents with the PI3K inhibitors inavolisib, alpelisib, duvelisib, and copanlisib in multi-cell type tumor spheroids
A high-throughput screen of multi-cell type tumor spheroids was designed to identify active combinations of targeted small molecules and PI3K pathway inhibitors. Complex spheroids include a stromal component modeled by human endothelial cells (HUVEC) and fibroblasts modeled by human mesenchymal stem cells (MSCs). The concentration ranges selected for each drug and investigational agent were based upon clinically achievable concentrations if the clinical Cmax of the agent was known.
Compounds. The drugs and investigational agents: inavolisib (NSC800729), alpelisib (NSC765974), duvelisib (NSC772469), copanlisib (NSC816437), ipatasertib (NSC767898), afuresertib (NSC778305), talazoparib (NSC767125), sapanisertib (NSC764658), selumetinib (NSC741078), tovorafenib (DAY101, NSC766906), vemurafenib (NSC761431), ravoxertinib (NSC781343), sotorasib (NSC818433), MRTX1133 (NSC 836407), abemaciclib (NSC 768073), palbociclib (NSC758247), venetoclax (NSC 766270), SY5609 (NSC837396), enzalutamide (NSC755605), and darolutamide (NSC825331), were obtained from the National Cancer Institute (NCI) Developmental Therapeutics Program Chemical Repository. The FDA-approved anticancer drug set is available from the NCI Developmental Therapeutics Program. […] The stock solutions were prepared in dimethyl sulfoxide (DMSO, Sigma-Aldrich, St. Louis, MO, cat. D2650) at 800-fold the tested concentration and stored at -70 degrees C prior to their use. All drugs and investigational agents were tested over a range starting from a high concentration at or near the clinical Cmax and decreasing in half-log increments. If the clinical Cmax for an agent had not been determined, the highest concentration tested was 10 microM.
Cell Culture. All cells were maintained in an incubator at 37 degrees C and 5% CO2 with 95% humidity. The PDC lines were cultured according to standard operating procedures established by the NCI PDMR (https://pdmr.cancer.gov/sops/default.htm). All PDCs were thawed and cultured in Matrigel-coated flasks prepared with a working solution of 1X Ham's F-12 nutrient mix, without supplementation (Invitrogen, Waltham, MA, cat. 11765054), 100 U/mL penicillin-streptomycin (Invitrogen, cat. 15140122), and 2.5% Matrigel (Corning Inc., Corning, NY, cat. 354248) for the first three passages. The 354836-022-R-J1-PDC, 475296-252-R-J1-PDC, and 997726-040-R-J2-PDC lines were cultured in 6A media, which includes advanced DMEM/F-12 (Thermo Fisher Scientific, cat. 12634028), 10 mM HEPES (Thermo Fisher Scientific, cat. 15630080), 1X GlutaMAX supplement (Thermo Fisher Scientific, cat. 35050061), 0.1 mg/mL primocin (InvivoGen, San Diego, CA, cat. ant-pm-2), 10% defined fetal bovine serum, heat inactivated (HyClone Laboratories Inc., Logan, UT, cat. SH30070.03HI), 50% L-WRN conditioned media (ATCC, cat. CRL-3276), 1.25 mM N-Acetyl-L-cysteine (Sigma-Aldrich, cat. A9165), 10 mM nicotinamide (Sigma-Aldrich, cat. N0636), 1X B-27 supplement (Thermo Fisher Scientific, cat. 17504044), 1X N-2 supplement (Thermo Fisher Scientific, cat. 17502048), and 10 microM Y-27632 dihydrochloride (Tocris Bioscience, Bristol, United Kingdom, cat. 1254). The 624824-186-R-J2-PDC line was cultured in 6C/Colon 1B media, which includes all 6A media components plus 50 ng/mL human EGF recombinant protein (Thermo Fisher Scientific, cat. PHG0311). […]
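Further: spheroids exposed to compound for 7 days before viability read.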
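Wherever viability, T/C is given: 100% = DMSO vehicle-treated spheroids.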

Question: What does the source list for C#Cc1c(F)ccc2cc(O)cc(-c3ncc4c(N5CC6CCC(C5)N6)nc(OCC56CCCN5CC(F)C6)nc4c3F)c12 (stereo not given)?
Answer: viability, T/C (compound 0.0316 µM): 86.7% [middle of 4 runs]; viability, T/C (compound 0.1 µM): 70.6% [middle of 4 runs]; viability, T/C (compound 0.316 µM): 53.7% [middle of 4 runs]; viability, T/C (compound 1 µM): 40.4% [middle of 4 runs]; viability, T/C (compound 3.16 µM): 35.4% [middle of 4 runs]; viability, T/C (compound 10 µM): 27.9% [middle of 4 runs]; IC50 (curve of compound): 425 nM [middle of 4 runs]

Question: For C=CC(=O)N1CCN(c2nc(=O)n(-c3c(C)ccnc3C(C)C)c3nc(-c4c(O)cccc4F)c(F)cc23)C(C)C1 (stereo not given), which viability, T/C (compound 0.0316 µM) is on record?
Answer: 95.3% [middle of 4 runs]

Question: And the viability, T/C (compound 0.1 µM)?
Answer: 84.4% [middle of 4 runs]

Question: What about the viability, T/C (compound 0.316 µM) of the same compound?
Answer: 92.5% [middle of 4 runs]

Question: And the viability, T/C (compound 1 µM)?
Answer: 94.6% [middle of 4 runs]

Question: And the viability, T/C (compound 3.16 µM)?
Answer: 91.7% [middle of 4 runs]

Question: And the viability, T/C (compound 10 µM)?
Answer: 56.1% [middle of 4 runs]

Question: And the IC50 (curve of compound)?
Answer: > 10000 nM

Question: CC1(C)CCC(Nc2ncc(C(F)(F)F)c(-c3c[nH]c4c(P(C)(C)=O)c(C#N)ccc34)n2)CN1 (stereo not given) was tested. Which viability, T/C (compound 0.0316 µM) did it give?
Answer: 72.4% [middle of 4 runs]

Question: What about the viability, T/C (compound 0.1 µM) of the same compound?
Answer: 70.7% [middle of 4 runs]

Question: And the viability, T/C (compound 0.316 µM)?
Answer: 78.8% [middle of 4 runs]

Question: What about the viability, T/C (compound 1 µM) of the same compound?
Answer: 82.7% [middle of 4 runs]

Question: And the viability, T/C (compound 3.16 µM)?
Answer: 86.8% [middle of 4 runs]

Question: And the viability, T/C (compound 10 µM)?
Answer: 24% [middle of 4 runs]

Question: What about the IC50 (curve of compound) of the same compound?
Answer: 5.87 µM [middle of 4 runs]

Question: Which results are given for Cn1ncc(Cl)c1-c1cc(C(=O)NC(CN)Cc2cccc(F)c2)sc1Cl (stereo not given)?
Answer: viability, T/C (compound 0.0316 µM): 80.2% [middle of 4 runs]; viability, T/C (compound 0.1 µM): 55.6% [middle of 4 runs]; viability, T/C (compound 0.316 µM): 34% [middle of 4 runs]; viability, T/C (compound 1 µM): 21.5% [middle of 4 runs]; viability, T/C (compound 3.16 µM): 13.1% [middle of 4 runs]; viability, T/C (compound 10 µM): 4.48% [middle of 4 runs]; IC50 (curve of compound): 121 nM and 127 nM and 155 nM

Question: Which IC50 (curve of first compound, second compound 0.00316 µM) does the source give for Cn1cnc2c(F)c(Nc3ccc(Br)cc3Cl)c(C(=O)NOCCO)cc21 + CC(Nc1ccc2c(c1)OCCn1cc(N3C(=O)OCC3C(F)F)nc1-2)C(N)=O here?
Answer: 422 nM

Question: What about the IC50 (curve of first compound, second compound 0.01 µM) of the same compound?
Answer: 71 nM

Question: What about the IC50 (curve of first compound, second compound 0.0316 µM) of the same compound?
Answer: < 9.49 nM

Question: What about the IC50 (curve of first compound, second compound 0.1 µM) of the same compound?
Answer: < 9.49 nM

Question: And the IC50 (curve of first compound, second compound 0.316 µM)?
Answer: < 9.49 nM

Question: What about the IC50 (curve of first compound, second compound 1 µM) of the same compound?
Answer: < 9.49 nM

Question: What about the viability, T/C (second compound 0.00316 µM, first compound 0.00949 µM) of the same compound?
Answer: 63.8%

Question: And the viability, T/C (second compound 0.00316 µM, first compound 0.03 µM)?
Answer: 71.5%

Question: And the viability, T/C (second compound 0.00316 µM, first compound 0.0949 µM)?
Answer: 64.9%

Question: And the viability, T/C (second compound 0.00316 µM, first compound 0.3 µM)?
Answer: 56.4%

Question: What about the viability, T/C (second compound 0.00316 µM, first compound 0.949 µM) of the same compound?
Answer: 34.3%

Question: What about the viability, T/C (second compound 0.00316 µM, first compound 3 µM) of the same compound?
Answer: 15.4%

Question: What about the viability, T/C (second compound 0.01 µM, first compound 0.00949 µM) of the same compound?
Answer: 60.4%

Question: And the viability, T/C (second compound 0.01 µM, first compound 0.03 µM)?
Answer: 54.8%

Question: And the viability, T/C (second compound 0.01 µM, first compound 0.0949 µM)?
Answer: 46.9%

Question: What about the viability, T/C (second compound 0.01 µM, first compound 0.3 µM) of the same compound?
Answer: 40.9%

Question: And the viability, T/C (second compound 0.01 µM, first compound 0.949 µM)?
Answer: 23.9%

Question: What about the viability, T/C (second compound 0.01 µM, first compound 3 µM) of the same compound?
Answer: 10.1%

Question: What about the viability, T/C (second compound 0.0316 µM, first compound 0.00949 µM) of the same compound?
Answer: 44.8%

Question: What about the viability, T/C (second compound 0.0316 µM, first compound 0.03 µM) of the same compound?
Answer: 38.7%

Question: What about the viability, T/C (second compound 0.0316 µM, first compound 0.0949 µM) of the same compound?
Answer: 33.9%

Question: What about the viability, T/C (second compound 0.0316 µM, first compound 0.3 µM) of the same compound?
Answer: 26.8%

Question: And the viability, T/C (second compound 0.0316 µM, first compound 0.949 µM)?
Answer: 16.4%

Question: And the viability, T/C (second compound 0.0316 µM, first compound 3 µM)?
Answer: 6.34%

Question: What about the viability, T/C (second compound 0.1 µM, first compound 0.00949 µM) of the same compound?
Answer: 30.6%

Question: What about the viability, T/C (second compound 0.1 µM, first compound 0.03 µM) of the same compound?
Answer: 27.1%

Question: And the viability, T/C (second compound 0.1 µM, first compound 0.0949 µM)?
Answer: 24.2%

Question: And the viability, T/C (second compound 0.1 µM, first compound 0.3 µM)?
Answer: 17.7%

Question: And the viability, T/C (second compound 0.1 µM, first compound 0.949 µM)?
Answer: 9.75%

Question: What about the viability, T/C (second compound 0.1 µM, first compound 3 µM) of the same compound?
Answer: 2.93%

Question: What about the viability, T/C (second compound 0.316 µM, first compound 0.00949 µM) of the same compound?
Answer: 20.9%

Question: What about the viability, T/C (second compound 0.316 µM, first compound 0.03 µM) of the same compound?
Answer: 18.9%

Question: And the viability, T/C (second compound 0.316 µM, first compound 0.0949 µM)?
Answer: 15.3%

Question: What about the viability, T/C (second compound 0.316 µM, first compound 0.3 µM) of the same compound?
Answer: 11.7%

Question: What about the viability, T/C (second compound 0.316 µM, first compound 0.949 µM) of the same compound?
Answer: 4.97%

Question: And the viability, T/C (second compound 0.316 µM, first compound 3 µM)?
Answer: 1.75%

Question: And the viability, T/C (second compound 1 µM, first compound 0.00949 µM)?
Answer: 16.9%

Question: What about the viability, T/C (second compound 1 µM, first compound 0.03 µM) of the same compound?
Answer: 13.7%

Question: And the viability, T/C (second compound 1 µM, first compound 0.0949 µM)?
Answer: 12.7%

Question: And the viability, T/C (second compound 1 µM, first compound 0.3 µM)?
Answer: 8.33%

Question: And the viability, T/C (second compound 1 µM, first compound 0.949 µM)?
Answer: 2.91%

Question: And the viability, T/C (second compound 1 µM, first compound 3 µM)?
Answer: 1.25%
